Experimental data published in ChEMBL document CHEMBL1201862, “PubChem BioAssay data set” (2004).
Activity calls are given as the source filed them.

Tests used:
[1] = target: G2/mitotic-specific cyclin-B1 (Homo sapiens, UniProt P14635); assay: Counterscreen assay for inhibitors of Wee1 degradation: dose response cell-based assay to identify inhibitors of cyclin B degradation. [Related pubchem assays: 1410, 1321 ]; assay type: functional
Wee1-like protein kinase = Wee1-like protein kinase (Homo sapiens, UniProt P30291); assay: Dose Response Cell-based Assay for Inhibitors of Wee1 Degradation. [Related pubchem assays: 1410, 1321 ]; assay type: functional
[2] = target: T1, Heat shock factor protein 1 (Mus musculus, UniProt P38532); assay: HSF1 potentiators in luciferase reporter cells, confirmation, cell-based, NIH3T3, luminescence, dose retest (AID 435004); assay type: functional;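 note: stress induced by proteasome inhibitor MG132 added 30 min after compound; luciferase reporter driven by HSF1 response element in NIH3T3 cells; actives raise luminescence as potentiators of the MG132 stress response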
T1 sequence (P38532 whole entry): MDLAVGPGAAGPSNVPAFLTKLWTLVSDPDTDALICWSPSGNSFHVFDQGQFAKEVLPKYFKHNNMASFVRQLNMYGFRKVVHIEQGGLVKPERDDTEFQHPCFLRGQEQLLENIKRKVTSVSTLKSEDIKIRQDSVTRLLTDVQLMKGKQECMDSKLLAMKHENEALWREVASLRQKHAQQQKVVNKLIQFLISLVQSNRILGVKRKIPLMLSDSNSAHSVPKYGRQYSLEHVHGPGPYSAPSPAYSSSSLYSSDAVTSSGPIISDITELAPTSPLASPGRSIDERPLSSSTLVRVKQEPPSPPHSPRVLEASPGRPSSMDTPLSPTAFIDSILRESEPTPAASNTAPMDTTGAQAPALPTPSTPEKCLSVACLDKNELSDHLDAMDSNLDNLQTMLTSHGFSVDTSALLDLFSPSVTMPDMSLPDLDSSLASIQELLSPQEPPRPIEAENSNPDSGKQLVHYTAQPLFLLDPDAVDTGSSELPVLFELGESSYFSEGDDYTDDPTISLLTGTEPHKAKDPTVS

[3] = cytotoxicity in HEK-293T cells, dose response, cytotoxicity control for BCR NF-kB inhibitor project, luminescence, B-cell screen hits (AID 489021); assay type: functional, cell-based;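 note: HEK-293T cells carrying an NF-kB luciferase reporter; cells exposed to compound for about 14 hours before viability readout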
Bcl-2-like protein 10 = target: T2, Bcl-2-like protein 10 (Homo sapiens, UniProt Q9HD36); assay: displacers of TR3 peptide from Bcl-B, primary screen, selectivity assay for Bfl-1 inhibitor project, biochemical, fluorescence polarization, FITC-TR3 peptide (AID 748);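 note: fluorescence polarization from a fluorescein-labelled TR3 peptide binding purified Bcl-B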
T2 sequence (Q9HD36 whole entry): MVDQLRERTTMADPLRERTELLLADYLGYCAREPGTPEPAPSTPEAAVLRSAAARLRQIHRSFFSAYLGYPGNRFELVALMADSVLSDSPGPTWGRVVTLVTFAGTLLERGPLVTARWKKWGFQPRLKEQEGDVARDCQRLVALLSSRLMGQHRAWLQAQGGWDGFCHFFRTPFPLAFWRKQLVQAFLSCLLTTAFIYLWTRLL

[4] = target: Glyceraldehyde-3-phosphate dehydrogenase (Homo sapiens, UniProt P04406)
[5] = target: Serine/threonine-protein phosphatase PP1-alpha catalytic subunit (Homo sapiens, UniProt P62136); assay: PP1 phosphatase inhibitors, dose response, biochemical, fluorescence (AID 2403);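 note: phosphatase turnover of OMFP into fluorescent 3-O-methylfluorescein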
[6] = test system: Streptococcus sp. 'group A'; assay: growth inhibition of control SK(-) GAS strain, dose response, counter-screen for streptokinase expression inhibitor project, luminescence, kanamycin, BacTiterGlo, confirmation (AID 1900); assay type: functional, organism-based
[7] = inhibitors of intracellular T. cruzi replication, confirmation, NIH3T3 host cells, beta-gal luminescence (AID 2044); assay type: functional, cell-based;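 note: intracellular parasites grown in NIH/3T3 mouse fibroblasts as host cells; luminescent beta-galactosidase reporter signal from transgenic T. cruzi replicating inside host cells; inhibitors lower the luminescence signal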
[8] = cytotoxicity toward DRD oncogenic fibroblasts, dose response, cell-based, non-viral oncogenic, luminescence (AID 1934); assay type: functional; settings: Homo sapiens
BJ [9] = assay: cytotoxicity toward BJ-TERT fibroblasts, dose response, cell-based, RAS-independent, luminescence (AID 1933); assay type: functional; settings: Homo sapiens
INS1 = assay: beta cell apoptosis inhibitors, cytokine rescue, dose response, luminescence, retest (AID 449756); assay type: functional, cell-based; settings: Rattus norvegicus;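 note: cell death triggered by IL-1 beta plus TNF-alpha plus IFN-gamma mixture; protective hits raise ATP signal compared with cytokine alone wells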
[10] = HepG2 cell cytotoxicity, dose response, cytotoxicity control for Shn3 inhibitor project, CellTiter-Glo, cherry-picked (AID 624134); assay type: functional, cell-based
[11] = target: Serine/threonine-protein phosphatase (Homo sapiens, UniProt Q9BPW0); assay: Counterscreen for inhibitors of PP1: fluorescence-based biochemical high throughput dose response assay to identify inhibitors of Protein Phosphatase 5 (PP5). [Related pubchem assays: 2034 (Summary (PP5 inhibitors)), 1987 (PP5 inhibitors in singlate), 2235 (PP1 inhibitors in singlate)]
BJ [12] = assay: cells; assay type: functional, cell-based, Homo sapiens; settings: Homo sapiens, BJ
[13] = Shn3 3'UTR reporter inhibitors, dose response, cell-based, Clone20 osteoblasts, firefly luciferase, cherry-picked (AID 624132); assay type: functional;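 note: firefly luciferase luminescence from reporter carrying the Shn3 3'UTR in osteoblasts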
BJ [14] = assay: cytotoxicity toward BJ-TERT-LT-ST fibroblasts, dose response, cell-based, RAS-independent, luminescence (AID 1935); assay type: functional; settings: Homo sapiens;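 note: BJ fibroblasts immortalized with TERT plus LT and ST oncogenes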
[15] = control 3'UTR Renilla luciferase suppression, dose response, counter-screen for Shn3 inhibitor project, cell-based, Clone20-Shn3RL, cherry-picked (AID 624133); assay type: functional
[16] = cytotoxicity toward NIH3T3 fibroblasts, dose response, counter-screen, cell-based, ATP luminescence, mouse fibroblasts (AID 2010); assay type: functional;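 note: cells exposed to compound for about 90 hours before reading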
Streptococcus = assay: Group A Streptococcus viability loss, dose response, counter-screen for streptokinase expression inhibitor project, luminescence, BacTiterGlo (AID 1915); assay type: functional, organism-based;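 note: potency for reduction of bacterial viability or growth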
cells [17] = assay type: functional, cell-based
cells [18] = assay type: functional, cell-based; remark: listed apart in the source
[19] = target: Eukaryotic translation initiation factor 4H (Homo sapiens, UniProt Q15056); assay: human eIF4H binding inhibitors, primary screen, translation initiation inhibitor project, biochemical, uHTS, fluorescence polarization (AID 2012)
[20] = target: Polyadenylate-binding protein 1 (Homo sapiens, UniProt P11940); assay: PABP poly(A) RNA binding inhibitors, primary screen, biochemical, fluorescence polarization, uHTS (AID 2014)
Polyadenylate-binding protein 1, sequence (P11940 whole entry): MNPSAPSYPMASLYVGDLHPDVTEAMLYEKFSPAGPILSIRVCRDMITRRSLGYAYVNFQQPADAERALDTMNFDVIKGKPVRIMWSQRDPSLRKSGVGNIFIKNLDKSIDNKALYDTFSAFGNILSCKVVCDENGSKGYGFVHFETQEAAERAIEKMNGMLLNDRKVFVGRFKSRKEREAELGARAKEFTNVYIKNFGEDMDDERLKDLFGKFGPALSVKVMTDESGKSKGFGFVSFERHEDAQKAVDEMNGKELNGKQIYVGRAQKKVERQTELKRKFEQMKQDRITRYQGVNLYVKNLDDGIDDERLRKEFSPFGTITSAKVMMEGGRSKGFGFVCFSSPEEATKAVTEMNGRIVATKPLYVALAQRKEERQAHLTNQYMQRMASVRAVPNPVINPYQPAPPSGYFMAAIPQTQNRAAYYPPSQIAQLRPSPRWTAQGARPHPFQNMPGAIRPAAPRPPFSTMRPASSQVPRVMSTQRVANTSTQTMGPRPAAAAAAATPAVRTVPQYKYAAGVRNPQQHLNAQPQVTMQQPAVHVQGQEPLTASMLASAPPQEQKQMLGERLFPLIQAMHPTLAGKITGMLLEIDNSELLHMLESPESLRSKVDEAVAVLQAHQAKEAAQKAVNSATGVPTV

G2/mitotic-specific cyclin-B1, sequence (P14635 whole entry): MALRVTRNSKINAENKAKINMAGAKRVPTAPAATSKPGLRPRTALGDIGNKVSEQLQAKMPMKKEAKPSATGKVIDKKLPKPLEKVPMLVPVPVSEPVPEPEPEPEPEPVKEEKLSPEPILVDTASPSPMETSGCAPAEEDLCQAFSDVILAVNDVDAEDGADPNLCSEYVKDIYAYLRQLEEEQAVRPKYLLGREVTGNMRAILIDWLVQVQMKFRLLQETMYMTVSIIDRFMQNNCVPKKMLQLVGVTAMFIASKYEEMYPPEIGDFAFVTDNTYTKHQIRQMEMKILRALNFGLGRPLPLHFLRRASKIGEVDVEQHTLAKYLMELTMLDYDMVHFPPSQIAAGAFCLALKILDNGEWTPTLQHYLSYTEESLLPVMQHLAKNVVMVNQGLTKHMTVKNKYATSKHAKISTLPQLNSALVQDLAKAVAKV
Serine/threonine-protein phosphatase PP1-alpha catalytic subunit, sequence (P62136 whole entry): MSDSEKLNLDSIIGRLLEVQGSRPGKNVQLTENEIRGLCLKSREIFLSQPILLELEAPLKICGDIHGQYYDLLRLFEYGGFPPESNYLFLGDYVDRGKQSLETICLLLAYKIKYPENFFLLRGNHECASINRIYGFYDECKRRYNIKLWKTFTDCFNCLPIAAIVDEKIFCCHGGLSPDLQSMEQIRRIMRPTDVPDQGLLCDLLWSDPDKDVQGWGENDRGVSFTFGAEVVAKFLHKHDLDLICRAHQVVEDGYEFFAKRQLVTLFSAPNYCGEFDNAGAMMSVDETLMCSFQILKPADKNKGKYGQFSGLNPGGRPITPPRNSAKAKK
Wee1-like protein kinase, sequence (P30291 whole entry): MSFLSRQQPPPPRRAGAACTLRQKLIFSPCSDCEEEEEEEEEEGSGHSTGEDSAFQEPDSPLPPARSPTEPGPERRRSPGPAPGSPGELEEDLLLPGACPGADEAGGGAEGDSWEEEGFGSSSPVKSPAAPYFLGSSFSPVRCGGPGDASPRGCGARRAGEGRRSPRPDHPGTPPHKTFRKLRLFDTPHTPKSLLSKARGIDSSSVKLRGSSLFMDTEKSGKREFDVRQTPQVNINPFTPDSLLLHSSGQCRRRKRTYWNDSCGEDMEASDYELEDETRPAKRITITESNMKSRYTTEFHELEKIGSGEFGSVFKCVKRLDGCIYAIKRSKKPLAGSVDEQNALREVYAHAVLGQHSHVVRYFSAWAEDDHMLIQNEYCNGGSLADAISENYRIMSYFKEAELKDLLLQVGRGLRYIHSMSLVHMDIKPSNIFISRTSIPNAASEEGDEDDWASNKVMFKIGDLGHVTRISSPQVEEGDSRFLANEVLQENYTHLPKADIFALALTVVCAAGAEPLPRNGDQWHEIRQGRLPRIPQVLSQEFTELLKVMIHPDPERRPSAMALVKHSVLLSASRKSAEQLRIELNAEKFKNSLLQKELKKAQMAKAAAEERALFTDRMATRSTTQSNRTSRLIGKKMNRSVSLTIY
Serine/threonine-protein phosphatase, sequence (Q9BPW0 whole entry): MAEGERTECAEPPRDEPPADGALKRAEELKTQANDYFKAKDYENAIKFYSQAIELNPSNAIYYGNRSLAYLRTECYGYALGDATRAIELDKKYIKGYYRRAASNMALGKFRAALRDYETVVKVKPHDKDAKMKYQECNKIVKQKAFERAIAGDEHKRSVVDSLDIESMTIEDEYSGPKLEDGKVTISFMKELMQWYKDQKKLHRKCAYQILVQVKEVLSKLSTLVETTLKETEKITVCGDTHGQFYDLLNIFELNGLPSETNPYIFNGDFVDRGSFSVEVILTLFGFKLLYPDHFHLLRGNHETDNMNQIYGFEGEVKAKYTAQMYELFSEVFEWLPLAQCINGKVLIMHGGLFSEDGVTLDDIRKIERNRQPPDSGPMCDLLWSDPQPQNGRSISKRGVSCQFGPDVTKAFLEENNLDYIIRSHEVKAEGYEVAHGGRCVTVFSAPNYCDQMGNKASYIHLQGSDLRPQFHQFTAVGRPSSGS
Glyceraldehyde-3-phosphate dehydrogenase, sequence (P04406 whole entry): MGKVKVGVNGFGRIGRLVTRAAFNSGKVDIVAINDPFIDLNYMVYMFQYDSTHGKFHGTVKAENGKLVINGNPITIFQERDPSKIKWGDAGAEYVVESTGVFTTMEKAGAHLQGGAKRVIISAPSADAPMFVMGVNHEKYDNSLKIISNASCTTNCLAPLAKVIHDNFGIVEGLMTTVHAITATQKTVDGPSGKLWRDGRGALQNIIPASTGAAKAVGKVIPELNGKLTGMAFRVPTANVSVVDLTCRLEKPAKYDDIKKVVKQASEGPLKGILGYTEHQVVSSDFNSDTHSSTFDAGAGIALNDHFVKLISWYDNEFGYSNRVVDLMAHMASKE

CCOC(=O)N1CCN(C(=O)c2cc(-c3ccc(OCC)cc3)nc3ccccc23)CC1
EC50 [1]: > 49.7 µM (not active) | EC50 (Wee1-like protein kinase): > 49.7 µM (not active) | EC50 [2]: 14.5 µM (active)

OCCC/N=C/c1c(-c2ccccc2)nn(-c2nc3ccccc3s2)c1O
IC50 [3]: > 80 µM (inactive)

O=C(NCCN1CCCCCC1)C1CCC(CNS(=O)(=O)c2cccc3cccnc23)CC1 (centres undefined)
IC50 (Bcl-2-like protein 10): > 100 µM (inactive)

O=C(O)CSc1ccc2cc(O)ccc2c1
IC50 [4]: > 100 µM (not active)

Cc1ccc(Nc2c(-c3ccccn3)nc3cccc(C)n23)cc1
IC50 [5]: 8.52 µM (active) | EC50 [6]: 0.77 µM (active) | EC50 [7]: 0.488 µM (active) | EC50 [8]: 13.5 µM (active) | EC50 (BJ [9]): 6.81 µM (active) | AC50 (INS1): 2.77 µM (active) | AC50 [10]: 25.6 µM (active) | IC50 [11]: 45.1 µM (not active) | EC50 (BJ [12]): 14.3 µM (active) | AC50 [13]: 1.9 µM (active) | EC50 (BJ [14]): 8.61 µM (inconclusive) | AC50 [15]: 0.907 µM (active) | EC50 [16]: < 6 µM (inconclusive) | EC50 (Streptococcus): 1.35 µM (active) | EC50 (cells [17]): 12.7 µM (active) | EC50 (cells [18]): > 350 µM (not active)

c1cc[n+](CCC[n+]2ccccc2)cc1
IC50 [19]: 96.5 µM (active) | IC50 [20]: 3.68 µM (active)
